{"source": "patent US7956088B2", "about": "“Synthetic lactone formulations and methods of use” (priority 2002, dated 2011)", "key": {"Sarcina lutea": {"system": "Sarcina lutea", "assay": "Disc zone of inhibition / MIC tests No. 1-3, poured in plate, Mueler Hinton pH 8", "assay_type": "cell-based", "details": "for zone of inhibition at 10 µg/disc: Micrococcus luteus; for zone of inhibition at 10 µg/disc / P (mm), zone of inhibition: pattern disc with 10 μg"}, "Pseudomona aeruginosa": {"system": "Pseudomona aeruginosa", "assay": "Microbiological sensitivity assay", "assay_type": "cell-based", "text": "Culture Medium for Pseudomona aeruginosa (USP 23 <81>) • Pancreatic digestive Caseine . . . 17.0 g • soy Papaine digestive . . . 3.0 g • Sodium Chloride . . . 5.0 g • Dibasic Potassium Phosphate . . . 2.5 g • Dextrose . . . 2.5 g • Agar . . . 20.0 g • Water to make about . . . 1.0 Lit • pH after sterilized 7.2±0.1"}, "[1]": {"system": "C-33 (HPV-negative) human cervical cancer cells", "assay": "In vitro cytotoxicity / anti-proliferative activity", "assay_type": "cell-based"}, "[2]": {"assay": "Study of adverse reactions in healthy volunteers", "assay_type": "in vivo", "text": "Nineteen healthy volunteers participated in the study. The age of the participants was between 21 and 40 years with an average of 30.5±7.2 years. The weight was between 150 and 190 pounds with a median of 163.2±14.3 pounds and the height was 1.8 to 2.1 meters with an average of 1.9±0.1 meters. The subjects were selected at random in agreement with the national and international criteria and norms established for investigations with human beings.\nThe state of health of the participants was established using several clinical evaluations, laboratory tests, electrocardiographs and thoracic radiographs. The functionality of the liver and the renal systems was verified by chemical-enzymatic studies. Likewise, for each participant we carried out tests of blood chemistry, pathology and urinalysis. For the females, the absence of pregnancy and/or lactation was verified by means of laboratory tests and gynecological evaluation.\nParticipants were divided into three groups selected at random (n=6): • Group I (placebo) received 2.0 ml of saline solution (ClNa^+, 0.9%), Group II, received 60 mg of LMSV-6 intramuscularly, and Group III (n=7) received 100 mg of LMSV-6 intramuscularly. The participants underwent several tests used to establish the basal values of the objective parameters of the analysis, which included:\nLab Studies: hemogram, blood chemistry, urinalysis and coproanalysis\nCardiovascular Function: arterial tension (TA), cardiac rhythm (RC), cardiac frequency (FC) and radial pulse (PR)\nPulmonary Functions: pulmonary respiration (VP) and respiratory frequency (FR)\nRenal Function: urinary volume and urinary frequency (FU)\nSensory System: hearing, vision, smell, taste and sensory reflexes\nSkin and/or Teguments: sensitivity, skin texture, temperature and musculo-skeletal tone\nNeurovegetative Functions: salivary gland and sweat gland activities, gastrointestinal […] and visceral reflexes\nHypersensitivity Reactions: local sensitivity and systemic sensitivity."}, "[3]": {"system": "CaSKi (HPV Type-16 positive) human cervical cancer cells", "assay": "In vitro cytotoxicity / anti-proliferative activity", "assay_type": "cell-based"}, "[4]": {"system": "PC-4 human prostate cancer cells", "assay": "In vitro cytotoxicity / anti-proliferative activity", "assay_type": "cell-based"}, "[5]": {"system": "PC-4, LnCaP, CaSKi and C-33 tumor cell lines", "details": "curves of 1000 μg LMSV-6 and 1000 μM tamoxifen; cell line not stated", "protocol": "Four tumor cell lines, including human prostate cancers PC-4 ([…]) and LnCaP ([…]) and human cervical cancers CaSKi (human papilloma virus-(HPV) Type-16 positive] and C-33 (HPV-negative), were cultured in RPMI-10% bovine serum, glutamine and antibiotics at 5% CO2 an 37 degrees Celsius."}, "[6]": {"system": "LnCaP human prostate cancer cells", "assay": "In vitro cytotoxicity / anti-proliferative activity", "assay_type": "cell-based"}, "[7]": {"system": "Salmonella typhimurium TA98", "assay": "Ames test", "assay_type": "cell-based", "details": "1 or 10 μg/mL", "protocol": "(§1) This study was performed in accordance with the norms of USC 79/831, which establishes the guidelines for toxicological analytical methods.\n(§2) The Ames test detects drug-induced ‘reverting mutations’ in previously mutated strains of Salmonella typhimurium, all of which have the rfa mutation that makes their cell membranes permeable to chemical agents. […] The presence of these mutations incapacitates the growth of these cells in a histidine-poor culture medium.\n(§3) A drug is said to be mutagenic if it causes a greater than 2-fold increase in the number of colonies growing in histidine-poor medium."}, "[8]": {"system": "Salmonella typhimurium TA100", "assay": "Ames test", "assay_type": "cell-based", "details": "≦100 μg/mL", "protocol": "as §1, §2, §3"}, "Klebsiela pneumoniae": {"system": "Klebsiela pneumoniae", "assay": "Microbiological sensitivity assay", "assay_type": "cell-based", "text": "(§4) Culture Medium for E. coli and k. neumoniae (according to USP 23 <81>) • Peptone . . . 5.0 g • Yeast Extract . . . 1.5 g • Beef Extract . . . 1.5 g • Sodium Chloride . . . 3.5 g • Dextrose . . . 1.0 g • Dibasic Potassium Phosphate . . . 3.68 g • Monobasic Potassium Phosphate . . . 1.32 g • Water To make about . . . 1.0 L • pH after sterilized 7.0±0.05 Antibacterial Activity Assays (Minimum Inhibitory Concentration, MIC)"}, "Escherichia coli": {"system": "Escherichia coli", "assay": "Microbiological sensitivity assay", "assay_type": "cell-based", "text": "as §4"}, "[9]": {"assay": "Rats infected in surgery, then treated", "assay_type": "in vivo", "text": "The high activity of these lactones against Escherichia coli, Klebsiela pneumoniae, Pseudomona aeruginosa, Staphylococo aureus, among others, and its low molecular weight, are advantageous."}, "Staphylococcus aureus": {"system": "Staphylococcus aureus", "assay": "Microbiological sensitivity assay", "assay_type": "cell-based", "text": "Culture Medium for Staphylococo aureus (USP 23 <81>) • Peptone . . . 1.0 g • Digestive pancreatic Caseine . . . 4.0 g • Yeast Extract . . . 3.0 g • Beef Extract . . . 1.5 g • Dextrose . . . 1.0 g • Agar . . . 15.0 g • Water to make about . . . 1.0 Lit • pH after sterilized 6.6±0.1"}, "[10]": {"details": "anti-proliferative activity after 72 hours"}}, "note": "“And” between values parts separate entries of the source, which are not always exact repeats. Equal values may be shown once. Read-outs that look alike come from different tables or passages of the source.", "data": [{"compound": "CO/N=C(\\C(=O)N[C@@H]1C(=O)N2C(C(=O)O)=C(CSc3nc(=O)c(=O)[nH]n3C)CS[C@H]12)c1csc(N)n1", "note": "[Ceftriaxone, reference compound]", "values": [{"measurement": "zone of inhibition at 10 µg/disc", "setting": "Sarcina lutea; Test No 2, read-out: P (mm), zone of inhibition", "result": 18, "unit": "mm"}, {"measurement": "zone of inhibition at 10 µg/disc", "setting": "Sarcina lutea; Test No 2, unlabelled sum line, read-out: P (mm), total of the three zones", "result": 49, "unit": "mm"}, {"measurement": "zone of inhibition at 10 µg/disc", "setting": "Sarcina lutea; Test No. 1, read-out: P (mm), zone of inhibition", "result": 12, "unit": "mm"}, {"measurement": "zone of inhibition at 10 µg/disc", "setting": "Sarcina lutea; Test No. 1, unlabelled sum line, read-out: P (mm), total of the three zones", "result": 43, "unit": "mm"}, {"measurement": "zone of inhibition at 10 µg/disc", "setting": "Sarcina lutea; Test No. 3, read-out: P (mm), zone of inhibition", "result": 18, "unit": "mm"}, {"measurement": "zone of inhibition at 10 µg/disc", "setting": "Sarcina lutea; Test No. 3, unlabelled sum line, read-out: P (mm), total of the three zones", "result": 49, "unit": "mm"}, {"measurement": "P (mm), zone of inhibition", "setting": "Sarcina lutea; Test No 2", "result": "16 mm and 15 mm"}, {"measurement": "P (mm), zone of inhibition", "setting": "Sarcina lutea; Test No. 1", "result": "15 mm and 16 mm"}, {"measurement": "P (mm), zone of inhibition", "setting": "Sarcina lutea; Test No. 3", "result": "16 mm and 15 mm"}]}, {"compound": "C=C1CCOC1=O", "note": "[LMSV-6, 4,5-dihydro-3-methylene-2[3H]furanone]", "values": [{"measurement": "Activity against Pseudomona aeruginosa", "setting": "Pseudomona aeruginosa", "result": "high activity"}, {"measurement": "LD50, cytotoxicity", "setting": "[1]; after 4 hours", "result": 538, "unit": "µM"}, {"measurement": "LD50", "setting": "[1]; [10]", "result": 7.10, "unit": "µM"}, {"measurement": "Respiratory frequency (FR)", "setting": "[2]; during the entire test", "result": "18 to 20", "unit": "respirations per minute"}, {"measurement": "Adverse reactions", "setting": "[2]; human, in vivo", "result": "no evidence, sign or symptom of adverse reactions"}, {"measurement": "Allergic effects (reactivity), local and systemic", "setting": "[2]; human, in vivo", "result": "not any manifestation of allergic reactions"}, {"measurement": "Cutaneous sensitivity and temperature", "setting": "[2]; human, in vivo", "result": "did not provoke any change"}, {"measurement": "Electrocardiograph pattern", "setting": "[2]; human, in vivo", "result": "no variation"}, {"measurement": "Mental state and sensory acuteness (auditory, visual, olfactory, taste)", "setting": "[2]; human, in vivo", "result": "did not provoke any alteration"}, {"measurement": "Respiratory mechanics and dynamics", "setting": "[2]; human, in vivo", "result": "did not alter"}, {"measurement": "Tolerance of maximum dosage tested", "setting": "[2]; human, in vivo", "result": "well tolerated"}, {"measurement": "LD50, cytotoxicity", "setting": "[3]; after 4 hours", "result": "> 1,982 μM"}, {"measurement": "LD50", "setting": "[3]; [10]", "result": 64.3, "unit": "µM"}, {"measurement": "LD50, cytotoxicity", "setting": "[4]; after 4 hours", "result": "> 1,982 μM"}, {"measurement": "LD50", "setting": "[4]; [10]", "result": 59.2, "unit": "µM"}, {"measurement": "LD50 from curves of percent inhibition of proliferation", "setting": "[5]", "result": 528, "unit": "µM"}, {"measurement": "LD50", "setting": "[6]; LNCaP, anti-proliferative activity after 72 hours", "result": 26.5, "unit": "µM"}, {"measurement": "LD50, cytotoxicity", "setting": "[6]; LnCaP, after 4 hours", "result": "> 1,982 μM"}, {"measurement": "Colony count in histidine-poor medium", "setting": "[7]", "result": "did not increase normal colony count"}, {"measurement": "Colony count in histidine-poor medium", "setting": "[8]", "result": "did not increase normal colony count"}, {"measurement": "Activity against Klebsiela pneumoniae", "setting": "Klebsiela pneumoniae", "result": "high activity"}, {"measurement": "Activity against Escherichia coli", "setting": "Escherichia coli", "result": "high activity"}, {"measurement": "Treatment of developed infection", "setting": "[9]", "result": "successfully treated"}, {"measurement": "Activity against Staphylococcus aureus", "setting": "Staphylococcus aureus", "result": "high activity"}, {"measurement": "S (mm), zone of inhibition", "setting": "Sarcina lutea; Test No 2, 16.0 microliters/100 mL and 10 μL applied to sensibility disc", "result": "20 mm and 23 mm and 19 mm"}, {"measurement": "S (mm), total of the three zones", "setting": "Sarcina lutea; Test No 2, 16.0 microliters/100 mL, 10 μL applied, unlabelled sum line", "result": 62, "unit": "mm"}, {"measurement": "S (mm), zone of inhibition", "setting": "Sarcina lutea; Test No. 1, 5 pure μL applied to sensibility disc", "result": "40 mm and 44 mm and 43 mm"}, {"measurement": "S (mm), total of the three zones", "setting": "Sarcina lutea; Test No. 1, 5 pure μL, unlabelled sum line", "result": 127, "unit": "mm"}, {"measurement": "Sample zone of inhibition relative to pattern", "setting": "Sarcina lutea; Test No. 1, versus ceftriaxone 10 μg disc", "result": "three times bigger"}, {"measurement": "S (mm), zone of inhibition", "setting": "Sarcina lutea; Test No. 3, 10 microliters/10 mL and 20 μL applied to sensibility disc", "result": "3 mm and 4 mm"}, {"measurement": "S (mm), total of the three zones", "setting": "Sarcina lutea; Test No. 3, 10 microliters/10 mL, 20 μL applied, unlabelled sum line", "result": 10, "unit": "mm"}, {"measurement": "Zone of Inhibition", "setting": "Sarcina lutea; applied volume to disc 0.2 μL (MIC)", "result": 3.3, "unit": "mm"}, {"measurement": "Zone of Inhibition", "setting": "Sarcina lutea; applied volume to disc 1.6 M", "result": 20.0, "unit": "mm"}, {"measurement": "Zone of Inhibition", "setting": "Sarcina lutea; applied volume to disc 5 μL", "result": 42.0, "unit": "mm"}, {"measurement": "Minimum Inhibitory Concentration (MIC)", "setting": "Sarcina lutea; volume applied to disc", "result": "~0.2", "unit": "µL"}]}, {"compound": "CC/C(=C(\\c1ccccc1)c1ccc(OCCN(C)C)cc1)c1ccccc1", "note": "[Tamoxifen]", "values": [{"measurement": "LD50 from curves of percent inhibition of proliferation", "setting": "[5]", "result": 345, "unit": "µM"}]}, {"compound": "CN(Cc1cnc2nc(N)nc(N)c2n1)c1ccc(C(=O)N[C@@H](CCC(=O)O)C(=O)O)cc1", "note": "[methotrexate, reference compound]", "values": [{"measurement": "Anti-proliferative activity against CaSKi", "setting": "[3]", "result": "lacked activity"}]}]}
